Test results published in US20260034227A1, “AZLACTONE-BASED POLYMERS AS A SCAFFOLD FOR DIVERSE APPLICATIONS IN DRUG AND GENE DELIVERY” (University of Mississippi, priority 2022, published 2026).

Assay: Pharmacokinetics of DBAC generated from polymer-drug conjugate (UPLC-MS/MS)
Assay type: in vivo, CD-1 mice
Settings: CD1 mice; for F: oral relative to intravenous, 10 mg/kg
Method: UPLC-MS/MS. Chromatography was performed on an AcquityTM UPLC system (Waters Corp, Milford, MA) with an autosampler temperature at 10° C. Waters Acquity UPLC® BEH Phenyl column (3.0×50 mm, 1.7 μm particle size) was used for chromatographic separation with linear gradient elution consisting of (A) 90% acetonitrile and (B) 10% of 0.2% formic acid in Milli-Q water as mobile phases. The flow rate was set at 0.30 mL/min, and the injection volume was 2 μL. An Acquity Tandem Quadrupole Mass Detector (Xevo TQ-S; Waters Corp, Milford, MA) in positive electrospray ionization mode was used for mass spectrometric detection. For collision-induced dissociation, argon was used as collision gas. The cone voltage and collision energy were set at 40 V and 24 V for DBAC and 40 V and 26 V for the tolbutamide (IS), respectively. Quantification was performed using the monitoring of multiple reaction monitoring (MRM) of following transitions: m/z 276/186 for DBAC and m/z 271/90.9 for IS. […] Pharmacokinetics of […]. All procedures were performed in compliance with the University of Mississippi Animal Care and Use Committee and following the National Institutes of Health (NIH) guidelines. […] Either DBAC or […] were administered at 10 mg/kg through oral gavage or retro-orbital IV injection at a volume of 0.1 mL. The vehicle for DBAC was 10% absolute alcohol, 10% cremophor and 80% Milli-Q water, whereas the […] polymer was administered in 100% PBS. […] Blood was collected by cardiac puncture and stored in K2 EDTA tubes (SAI Infusion Technologies, #MVCB-E-300). Mice were then perfused through heart with PBS (Life Technologies, #10-010-072). Plasma was harvested by centrifuging the blood using Eppendorf […] Centrifuge (Germany) at 5,000 rpm for 5 min and stored frozen at -80±10° C. until analysis. […] Sample preparation for DBAC detection. A simple protein precipitation method was followed for extraction of DBAC from mice plasma. To an aliquot of 50 μL of plasma or tissue (GI tract, heart, lung, spleen, liver or kidney) samples, tolbutamide (internal standard, IS) solution (5 μL of 20 ng/ml) was added and mixed for 15 s on a cyclomixer (Thermo Scientific, IN, USA). After precipitation with 500 μL of acetonitrile, the mixture was vortexed for 2 min, followed by centrifugation for 10 min at 14,000 rpm on an accuSpin Micro 17R (Fisher Scientific, USA) at 5° C. An aliquot of 150 μL of clear supernatant was transferred into vials and 2 μL was injected into the UPLC-MS/MS system for analysis. The primary stock solutions of DBAC and tolbutamide (IS) were prepared in methanol at 1.0 mg/mL concentration. Working solutions of calibration standards and quality control (QC) samples were prepared by dilution with methanol and stored at -20° C. A working stock of the IS solution (20 ng/ml) was prepared in methanol and stored at -20° C.

[1] = GI tract, intravenous 10 mg/kg conjugate
[2] = GI tract, oral 10 mg/kg conjugate
[3] = Heart, intravenous 10 mg/kg conjugate
[4] = Kidney, intravenous 10 mg/kg conjugate
[5] = Kidney, oral 10 mg/kg conjugate
[6] = Liver, intravenous 10 mg/kg conjugate
[7] = Lung, intravenous 10 mg/kg conjugate
[8] = Plasma, intravenous 10 mg/kg conjugate
[9] = Plasma, oral 10 mg/kg conjugate
[10] = Spleen, intravenous 10 mg/kg conjugate

N-(2-hydroxyethyl)-N,N-dimethyl-2-oxo-2-(2-oxo-2H-chromen-3-yl)ethanaminium [DBAC]
AUC0-α [1]: 18544 ± 156 ng·h/g
CO [1]: 4899 ± 1104 ng/g
t1/2 [1]: 6.97 ± 1.03 h
AUC0-α [2]: 95643 ± 1023 ng·h/g
Tmax [2]: 1.25 ± 0.53 h
F (GI tract): >100 ± 47.5%
AUC0-α [3]: 8914 ± 512 ng·h/g
CO [3]: 4961 ± 715 ng/g
t1/2 [3]: 2.20 ± 0.78 h
AUC0-α (Heart, oral 10 mg/kg conjugate): 1008 ± 95.6 ng·h/g
Tmax (Heart, oral 10 mg/kg conjugate): 4.38 ± 0.53 h
F (Heart): 11.3 ± 2.57%
AUC0-α [4]: 10575 ± 1910 ng·h/g
CO [4]: 41296 ± 2103 ng/g
t1/2 [4]: 3.49 ± 0.59 h
AUC0-α [5]: 490 ± 101 ng·h/g
Tmax [5]: 0.50 ± 0.00 h
F (Kidney): 4.64 ± 2.59%
AUC0-α [6]: 17457 ± 3832 ng·h/g
CO [6]: 36898 ± 2501 ng/g
t1/2 [6]: 2.24 ± 0.37 h
AUC0-α (Liver, oral 10 mg/kg conjugate): 1464 ± 346 ng·h/g
Tmax (Liver, oral 10 mg/kg conjugate): 0.63 ± 0.25 h
F (Liver): 8.38 ± 1.98%
AUC0-α [7]: 1772 ± 141 ng·h/g
CO [7]: 1326 ± 202 ng/g
t1/2 [7]: 3.73 ± 0.47 h
AUC0-α (Lung, oral 10 mg/kg conjugate): 1315 ± 85.6 ng·h/g
Tmax (Lung, oral 10 mg/kg conjugate): 1.25 ± 0.68 h
F (Lung): 74.2 ± 25.3%
AUC0-α [8]: 1586 ± 125 ng·h/mL
CO [8]: 7216 ± 1023 ng/mL
t1/2 [8]: 1.09 ± 0.12 h
AUC0-α [9]: 120 ± 65.0 ng·h/mL
Cmax [9]: 119 ± 25.3 ng/mL
Tmax [9]: 0.75 ± 0.29 h
F (Plasma): 7.59 ± 2.48%
AUC0-α [10]: 1089 ± 124 ng·h/g
CO [10]: 1026 ± 248 ng/g
t1/2 [10]: 2.27 ± 0.55 h
